The record followed here is patent publication US20120270935A1, “FORMULATIONS” (priority 2009, published 2012).

In one experiment the test system is S. pyogenes ATCC 12344. Nature of the experiment: MBC assay. The settings on record: Mueller-Hinton broth pH 7.0. The class given is cell-based, Streptococcus pyogenes. From the text:
(§1) (a) staphylococci. The Staphylococcus aureus strain used was ATCC 29213. S. aureus and other staphylococci are common causes of a wide range of skin, skin structure and wound infections; S. aureus is also known to exacerbate eczema. The ATCC 29213 strain is known to be susceptible to beta-lactam antibiotics such as methicillin. The Staphylococcus epidermidis strain used was NCTC 11047. Staph. epidermidis forms part of the resident flora of skin and is an opportunistic pathogen which can cause biofilms to grow for instance on plastic surgical implants such as catheters. Unless otherwise stated, the staphylococci were cultured and maintained on Mueller-Hinton Medium (agar and broth) at pH 7.2; cultures were incubated aerobically at 37° C. for 19-20 hours, at pH 7 (±0.2). (b) C. striatum NCTC 764. Corynebacterium striatum is closely related to organisms (aerobic diphtheroids of the genus Corynebacterium) that cause body odour. It was cultured and maintained on Mueller-Hinton medium (agar and broth). All cultures were incubated aerobically at 37° C. for 72 hours, at pH 7 (±0.2). (c) streptococci. The strains tested were S. mutans ATCC 25175 and S. pyogenes ATCC 12344. S. mutans is a Gram-positive, microaerophilic bacterium which plays a significant role in dental caries and in infective endocarditis. Streptococcus pyogenes is associated with skin, soft tissue, burn and wound infections. […]

The next experiment deals with C. striatum NCTC 764. Briefly: Disc diffusion assay (DDA). The class given is cell-based, Corynebacterium striatum. The settings on record: Corynebacterium striatum, NCTC764; 200 μg per disc; single plates; read-out: DDA zone diameter.
Description: as §1, with “streptococci.” for “streptococci. The strains tested were S. mutans ATCC 25175 and S. pyogenes ATCC 12344. S. mutans is a Gram-positive, microaerophilic bacterium which plays a significant role in dental caries and in infective endocarditis. Streptococcus pyogenes is associated with skin, soft tissue, burn and wound infections.”
A sterile paper disc was impregnated with a sample of the test compound in a suitable solvent and 30 minutes allowed for the solvents to evaporate (where possible). […] The diameter of this zone of “inhibition” was measured using a ProtoCOL™ automated zone sizer (Synbiosis, Cambridge, UK). […]
In general terms: Agar diffusion results depend on both activity and mobility in agar.

What is called MBC is the smallest concentration meeting the test's criterion for killing. A higher MBC goes with less potent killing. `CC(=O)c1c([O-])c(C)c([O-])c2c1OC1=CC(=O)C(C(C)=O)C(=O)C12C.[Cu+2]` (centres unmarked) [Copper usnate, copper (II) usnate] registered an MBC in the experiment with S. pyogenes ATCC 12344 of 0.98 µg/mL.

In the case of `CC(=O)c1c(O)c(C)c(O)c2c1OC1=CC(=O)C(C(C)=O)C(=O)C12C` (centres unmarked) [Usnic acid, 2,6-diacetyl-7,9-dihydroxy-8,9b-dimethyl-1,3(2H,9bh)-dibenzofurandione], the zone of inhibition at 200 µg/disc in the experiment with C. striatum NCTC 764 turned out to be 20 mm.
